This assay concerns the target T1, Recombinant human CBP containing the bromodomain (CBP-BD (1043-1159)) (Homo sapiens, UniProt Q92793).
T1 construct: Recombinant human CBP bromodomain (CBP-BD (1043-1159)); made in house; host or cells: E. coli BL21-CodonPlus (DE3), modified pET vector
In words: CBP Alphascreen binding assay. As to conditions: read-out: CREBBP (CBP) IC50. In a few lines: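 Buffer: 50 mM HEPES pH 7.5, 50 mM NaCl, 0.01% BSA, 0.01% Triton X-100, 2 mM DTT. The signal was normalised to plate controls and fitted with a four-parameter curve to give IC50.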
Background: In Alpha technology, singlet oxygen from a donor bead excites a nearby acceptor bead.

T1 sequence (Q92793 1081-1197): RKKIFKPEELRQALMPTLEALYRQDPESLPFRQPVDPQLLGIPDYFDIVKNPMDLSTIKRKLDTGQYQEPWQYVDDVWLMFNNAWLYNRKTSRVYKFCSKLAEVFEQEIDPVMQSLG

Broadly, the IC50 is the concentration at which inhibition is half-maximal. Take `Cc1nn(CC(C)(C)O)cc1-n1cc(-c2ccc(C(=O)O)cc2OC(F)(F)F)c2cc(-c3c(C)noc3C)cnc21` [P-0365, 4-(5-(3,5-dimethylisoxazol-4-yl)-1-(1-(2-hydroxy-2-methylpropyl)-3-methyl-1H-pyrazol-4-yl)-1H-pyrrolo[2,3-b]pyridin-3-yl)-3-(trifluoromethoxy)benzoic acid]: the IC50 lay within 0.1 to 1000 nM. With `Cc1nn(CC(=O)N(C)C)cc1-n1cc(-c2ccc(C(=O)O)cc2OC(F)(F)F)c2cc(-c3c(C)noc3C)cnc21` [P-0366, 4-(1-(1-(2-(dimethylamino)-2-oxoethyl)-3-methyl-1H-pyrazol-4-yl)-5-(3,5-dimethylisoxazol-4-yl)-1H-pyrrolo[2,3-b]pyridin-3-yl)-3-(trifluoromethoxy)benzoic acid] the figure was 0.1 to 1000 nM; with `Cc1cc(C(=O)O)cc(OCC(F)F)c1-c1cn(C2CCOCC2)c2ncc(-c3c(C)noc3C)cc12` [P-0367, 3-(2,2-difluoroethoxy)-4-(5-(3,5-dimethylisoxazol-4-yl)-1-(tetrahydro-2H-pyran-4-yl)-1H-pyrrolo[2,3-b]pyridin-3-yl)-5-methylbenzoic acid], 0.1 to 1000 nM; with `COc1nc(C(=O)O)ccc1-c1cn(C2CCOCC2)c2ncc(-c3c(C)noc3C)cc12` [P-0368, 5-(5-(3,5-dimethylisoxazol-4-yl)-1-(tetrahydro-2H-pyran-4-yl)-1H-pyrrolo[2,3-b]pyridin-3-yl)-6-methoxypicolinic acid], 0.1 to 1000 nM. As for `Cc1noc(C)c1-c1cnc2c(c1)c(-c1c(F)cc(C(=O)O)cc1OC(C)C)cn2C(C1CC1)C1CC1` [P-0369, 4-(1-(dicyclopropylmethyl)-5-(3,5-dimethylisoxazol-4-yl)-1H-pyrrolo[2,3-b]pyridin-3-yl)-3-fluoro-5-isopropoxybenzoic acid], the IC50 is 0.1 to 1000 nM.

In the case of `CCOc1cc(C(=O)O)cc(Cl)c1-c1cn(C(C2CC2)C2CC2)c2ncc(-c3c(C)noc3C)cc12` [P-0370, 3-chloro-4-(1-(dicyclopropylmethyl)-5-(3,5-dimethylisoxazol-4-yl)-1H-pyrrolo[2,3-b]pyridin-3-yl)-5-ethoxybenzoic acid], the IC50 is 0.1 to 1000 nM.

With `CCOc1cc(C(=O)O)cc(Cl)c1-c1cn(C2CCOCC2)c2ncc(-c3c(C)noc3C)cc12` [P-0371, 3-chloro-4-(5-(3,5-dimethylisoxazol-4-yl)-1-(tetrahydro-2H-pyran-4-yl)-1H-pyrrolo[2,3-b]pyridin-3-yl)-5-ethoxybenzoic acid], the IC50 fell in the range of 0.1 to 1000 nM. `Cc1noc(C)c1-c1cnc2c(c1)c(-c1c(Cl)cc(C(=O)O)cc1OC(C)C)cn2C1CCOCC1` [P-0372, 3-chloro-4-(5-(3,5-dimethylisoxazol-4-yl)-1-(tetrahydro-2H-pyran-4-yl)-1H-pyrrolo[2,3-b]pyridin-3-yl)-5-isopropoxybenzoic acid]: the IC50 lay within 0.1 to 1000 nM. The value for `CCOc1cc(C(=O)O)nc(OCC)c1-c1cn(C2CCOCC2)c2ncc(-c3c(C)noc3C)cc12` [P-0373, 5-(5-(3,5-dimethylisoxazol-4-yl)-1-(tetrahydro-2H-pyran-4-yl)-1H-pyrrolo[2,3-b]pyridin-3-yl)-4,6-diethoxypicolinic acid] was 0.1 to 1000 nM.

With `CCOc1cc(C(=O)O)c(F)c(OCC)c1-c1cn(C2CCOCC2)c2ncc(-c3c(C)noc3C)cc12` [P-0374, 4-(5-(3,5-dimethylisoxazol-4-yl)-1-(tetrahydro-2H-pyran-4-yl)-1H-pyrrolo[2,3-b]pyridin-3-yl)-3,5-diethoxy-2-fluorobenzoic acid], the IC50 fell in the range of 0.1 to 1000 nM. In the case of `CCOc1cc(C(=O)O)c(F)cc1-c1cn(C2CCOCC2)c2ncc(-c3c(C)noc3C)cc12` [P-0375, 4-(5-(3,5-dimethylisoxazol-4-yl)-1-(tetrahydro-2H-pyran-4-yl)-1H-pyrrolo[2,3-b]pyridin-3-yl)-5-ethoxy-2-fluorobenzoic acid], the IC50 lay in the range of 0.1 to 1000 nM. As to `CCOc1nc(C(=O)O)ccc1-c1cn(C2CCOCC2)c2ncc(-c3c(C)noc3C)cc12` [P-0376, 5-(5-(3,5-dimethylisoxazol-4-yl)-1-(tetrahydro-2H-pyran-4-yl)-1H-pyrrolo[2,3-b]pyridin-3-yl)-6-ethoxypicolinic acid], the IC50 lay within 0.1 to 1000 nM.

The values are drawn from US11446287B2, “Compounds and methods for EP300 or CBP modulation and indications therefor” (Opna Immuno-Oncology SA, priority 2019, dated 2022).
